# Experimental data: publication PMC3871636 (PLoS ONE, 2013)
# Structures can show the parent of a compound that is named as a salt.
# Tests used:
# [1] = target: CYP3A4 (C377/C468 mutant) (Homo sapiens, UniProt P08684, form not given/S18F); test: Ligand-induced spin shift, absorbance titration; type: binding; details: human, purified CYP3A4(C377/C468) mutant protein, pH 7.4; read-out: K D or S 50
# Method: (§1) All absorbance and fluorescence assays (including the time-resolved fluorescence measurements) were performed at a protein concentration ≤1 µM at 25°C with continuous stirring. Absorbance spectra were recorded with an S2000 rapid scanning CCD spectrometer (Ocean Optics). Ligand binding assays were done in 100 mM Na-Hepes buffer, pH 7.4, containing 0.5 mM EDTA.
# (§2) Absorbance spectra obtained in titration experiments were analyzed with a principal component analysis (PCA) procedure complemented with least-square approximation of the principal vectors with a combination of the prototypical spectra of the CYP3A4 low-spin, high-spin and Type II-substrate-bound ferric CYP3A4 P450 states as described, [31].
# (§3) When fitting the results of titration experiments, where the changes in the monitored signal A S (fraction of the enzyme in the high-spin state, intensity or the lifetime of the donor phosphorescence at a given substrate concentration) were assumed to be proportional to [ES], this equation was complemented with the offset A 0 and the scaling factor A max to yield the following relationship: [drawing 5] (Eq.5)
# CYP3A4 (C64/C468 mutant) = CYP3A4 (C64/C468 mutant) (Homo sapiens, UniProt P08684, form not given/S18F); test: Ligand-induced spin shift, absorbance titration; type: binding; details: human, purified CYP3A4(C64/C468) mutant protein, pH 7.4; read-out: K D or S 50
# Sequence of CYP3A4 (C64/C468 mutant) (P08684 13-503 S18F, form open): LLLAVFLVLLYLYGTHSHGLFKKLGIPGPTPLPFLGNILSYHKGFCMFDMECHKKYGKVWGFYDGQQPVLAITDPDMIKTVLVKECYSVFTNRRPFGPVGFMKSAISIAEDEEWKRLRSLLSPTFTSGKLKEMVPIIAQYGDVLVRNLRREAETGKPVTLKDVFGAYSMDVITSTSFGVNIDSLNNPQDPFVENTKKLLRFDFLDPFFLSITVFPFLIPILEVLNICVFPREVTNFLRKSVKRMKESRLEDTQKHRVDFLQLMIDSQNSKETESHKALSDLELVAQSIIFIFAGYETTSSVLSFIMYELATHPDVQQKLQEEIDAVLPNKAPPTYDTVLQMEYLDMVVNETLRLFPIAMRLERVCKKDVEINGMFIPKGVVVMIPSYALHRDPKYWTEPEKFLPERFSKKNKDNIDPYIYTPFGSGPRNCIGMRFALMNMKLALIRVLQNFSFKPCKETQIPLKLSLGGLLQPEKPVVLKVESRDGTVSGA
# Method: as §1, §2, §3
# [2] = target: CYP3A4 (double-labeled (C64/C468)-DY/ER) (Homo sapiens, UniProt P08684, form not given/S18F); test: Steady-state LRET titration (delayed emission); type: binding; details: human, purified double-labeled CYP3A4 (C64/C468)-DY/ER protein, pH 7.4; (C64/C468)-DY/ER; LRET titration; read-out: K d, steady-state fluorescence
# Sequence of CYP3A4 (double-labeled (C64/C468)-DY/ER) (P08684 13-503 S18F, form open): as above
# Method: as §1
# (§4) Fluorescence-based ligand binding assays were done under anaerobic conditions. Anaerobiosis was achieved using an oxygen-scavenging system consisting of protecatechuate-3,4-dioxygenase (0.5 units/ml) and 5 mM protocatechuic acid. The steady state and time-resolved phosphorescence measurements were performed with the use of a Cary Eclipse fluorescence spectrophotometer (Varian/Agilent Technologies). The excitation wavelength was set to 540 nm. Spectra were taken from 650 to 860 nm with 100 µs delay.
# (§5) Quantitative interpretation of LRET results was also based on the use of PCA applied to a series of emission spectra normalized on integral intensity. […] Intensity of the donor and acceptor fluorescence obtained in this way were used in determination of the efficiency of steady-state LRET using the equation [drawing 1] (Eq.1) where I ad is emission intensity of the acceptor, I da is the residual donor emission in the presence of acceptor (I da), Φ a and Φ d are the quantum yield of the fluorescence of acceptor and the quantum yield of the phosphorescence of donor, respectively.
# (§6) Distances were calculated using the equation: [drawing 3] (Eq.3) where R 0 is the Förster distance, and R is the distance between the donor and acceptor. R 0 was calculated with the use of PhotoChemCad software. In these calculations, we used the values of the orientation factor (κ^2) and the refractive index (n) of 0.667 and 1.4, respectively.
# as §3
# [3] = target: T1, double-labeled CYP3A4 (C64/C468)-DY/ER (Homo sapiens, UniProt P08684, S18F, form not given); test: Steady-state LRET titration (delayed emission); type: binding
# T1 sequence (P08684 13-503 S18F, form open): as above
# Method: as §1, §4, §5, §6, §3
# [4] = target: T2, double-labeled CYP3A4 (C64/C468)-ER/DY (Homo sapiens, UniProt P08684, S18F, form not given); test: Steady-state LRET titration (delayed emission); type: binding
# T2 sequence (P08684 13-503 S18F, form open): as above
# Method: as §1, §4, §5, §6, §3
# [5] = target: T3, double-labeled CYP3A4 C377/C468-DY/ER (Homo sapiens, UniProt P08684, S18F, form not given); test: Steady-state LRET titration (delayed emission); type: binding; details: Table S2; protein C377/C468-ER/DY; same ligand concentrations
# T3 sequence (P08684 13-503 S18F, form open): as above
# Method: as §1, §4, §5, §6, §3
# [6] = target: double-labeled CYP3A4 C64/C121-DY/ER (Homo sapiens, UniProt P08684, A121C/C239S/C377S/C468A/C98S/S18F); test: Steady-state LRET titration (delayed emission); details: Table S2; protein C64/C121-ER/DY; same ligand concentrations
# Sequence of double-labeled CYP3A4 C64/C121-DY/ER (P08684 with tags, fused parts or gaps S18F/C98S/A121C/C239S/C377S/C468A limits assumed): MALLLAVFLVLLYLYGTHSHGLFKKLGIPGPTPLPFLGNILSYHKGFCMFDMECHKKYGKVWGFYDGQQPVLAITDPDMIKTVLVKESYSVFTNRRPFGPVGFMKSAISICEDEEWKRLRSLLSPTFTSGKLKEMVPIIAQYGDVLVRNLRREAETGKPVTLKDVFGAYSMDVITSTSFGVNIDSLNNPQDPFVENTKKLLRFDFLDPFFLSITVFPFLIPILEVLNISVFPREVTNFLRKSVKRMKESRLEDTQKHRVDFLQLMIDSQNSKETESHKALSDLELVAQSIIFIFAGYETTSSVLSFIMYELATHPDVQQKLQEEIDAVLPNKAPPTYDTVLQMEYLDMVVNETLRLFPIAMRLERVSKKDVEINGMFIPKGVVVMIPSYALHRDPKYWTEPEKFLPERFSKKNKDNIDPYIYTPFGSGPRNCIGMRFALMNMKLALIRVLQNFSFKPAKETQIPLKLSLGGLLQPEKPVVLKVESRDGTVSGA
# Method: as §1, §4, §5, §6, §3
# [7] = target: T1, double-labeled CYP3A4 (C64/C468)-DY/ER; test: Time-resolved LRET (phosphorescence lifetime measurements)
# Source text: (§7) The excitation wavelength was set to 540 nm.
# [8] = target: T2, double-labeled CYP3A4 (C64/C468)-ER/DY; test: as above
# Source text: as §7
# [9] = target: T3, double-labeled CYP3A4 C377/C468-DY/ER; test: as above
# Source text: as §7
# [10] = Table S2, C64/C468-DY/ER, same ligand concentrations
# [11] = Table S2, C64/C468-ER/DY, same ligand concentrations
# [12] = Table S1, (C64/C468)-DY/ER, same ligand concentrations
# [13] = Table S1, (C64/C468)-ER/DY, same ligand concentrations
# [14] = Table S1, protein (C377/C468)-ER/DY, same ligand concentrations
# [15] = Table S2, protein C377/C468-ER/DY, same ligand concentrations
# Sequence of CYP3A4 (C377/C468 mutant) (P08684 13-503 S18F, form open): as the sequence (P08684 13-503 S18F, form open) above
smiles,measurement,setting,value
"CC(C)C[C@H]1C(=O)N2CCC[C@H]2[C@]2(O)O[C@](NC(=O)[C@@H]3C=C4c5cccc6[nH]c(Br)c(c56)C[C@H]4N(C)C3)(C(C)C)C(=O)N12 [Bromocriptine, Bromocriptine mesylate]",Kd,[1],0.96 ± 0.2 µM
same,Kd,CYP3A4 (C64/C468 mutant),0.34 ± 0.1 µM
same,Kd,[2],0.7 ± 0.1 µM
same,"ΔR (change in interprobe distance), steady-state fluorescence",[3]; (C64/C468)-DY/ER,0.2±0.2 Å
same,"R (interprobe distance with ligand), steady-state measurements",[3]; [10],35.1 ± 0 Å
same,"ΔR, steady-state measurements",[3]; [10],0.2 ± 0.2 Å
same,"ΔR (change in interprobe distance), steady-state fluorescence",[4]; (C64/C468)-ER/DY,0.5±1.6 Å
same,"R (interprobe distance with ligand), steady-state measurements",[4]; [11],39.6 ± 1.6 Å
same,"ΔR, steady-state measurements",[4]; [11],0.5 ± 1.6 Å
same,"R (interprobe distance with ligand), steady-state measurements",[5],44.7 ± 0.1 Å
same,"ΔR, steady-state measurements",[5],0.0 ± 0.1 Å
same,"R (interprobe distance with ligand), steady-state measurements",[6],43.6 ± 0.9 Å
same,"ΔR, steady-state measurements",[6],1.0 ± 0.9 Å
same,"ΔR (change in interprobe distance), lifetime measurements","[7]; (C64/C468)-DY/ER, nearly-saturating ligand: ANF 100 µM, bromocriptine 2.5 µM, cholesterol 50 µM, testosterone 100 µM",0.3±1.0 Å
same,τ1 (phosphorescence decay time with ligand),"[7]; Table S1, (C64/C468)-DY/ER, 1-PB 40 µM, ANF 100 µM, BCT 2.5 µM, cholesterol 100 µM, testosterone 100 µM, bi-exponential fit",55 ± 9 µs
same,F1 (fraction of first exponential),[7]; [12],44 ± 5%
same,τ2 (phosphorescence decay time with ligand),[7]; [12],209 ± 20 µs
same,τav (average phosphorescence lifetime with ligand),[7]; [12],141 ± 7 µs
same,"R (interprobe distance with ligand), lifetime measurements",[7]; [10],37.1 ± 0.8 Å
same,"ΔR, lifetime measurements",[7]; [10],0.3 ± 0.8 Å
same,"ΔR (change in interprobe distance), lifetime measurements","[8]; (C64/C468)-ER/DY, nearly-saturating ligand: ANF 100 µM, bromocriptine 2.5 µM, cholesterol 50 µM, testosterone 100 µM",−0.3±0.6 Å
same,τ1 (phosphorescence decay time with ligand),"[8]; Table S1, (C64/C468)-ER/DY, 1-PB 40 µM, ANF 100 µM, BCT 2.5 µM, cholesterol 100 µM, testosterone 100 µM, bi-exponential fit",39 ± 12 µs
same,F1 (fraction of first exponential),[8]; [13],28 ± 5%
same,τ2 (phosphorescence decay time with ligand),[8]; [13],168 ± 2 µs
same,τav (average phosphorescence lifetime with ligand),[8]; [13],131 ± 5 µs
same,"R (interprobe distance with ligand), lifetime measurements",[8]; [11],36.0 ± 0.5 Å
same,"ΔR, lifetime measurements",[8]; [11],-0.3 ± 0.5 Å
same,τ1 (phosphorescence decay time with ligand),"[9]; Table S1, protein (C377/C468)-ER/DY, 1-PB 40 µM, ANF 100 µM, BCT 2.5 µM, cholesterol 100 µM, testosterone 100 µM, bi-exponential fit",25 ± 9 µs
same,F1 (fraction of first exponential),[9]; [14],20 ± 4%
same,τ2 (phosphorescence decay time with ligand),[9]; [14],129 ± 6 µs
same,τav (average phosphorescence lifetime with ligand),[9]; [14],108 ± 3 µs
same,"R (interprobe distance with ligand), lifetime measurements",[9]; [15],36.8± 0.4 Å
same,"ΔR, lifetime measurements",[9]; [15],0.0 ± 0.4 Å
